# From patent US7667100B2, “Nucleic acid compositions conferring herbicide resistance” (Dow AgroSciences LLC, priority 2002, dated 2010)
# Test system: Arabidopsis thaliana
# Test: Auxin tolerance testing of stably transformed Arabidopsis thaliana
# Assay type: in vivo
# Settings: 50 μL of 3.75 g ae/ha solution on one lower leaf, within five days
# From the text: One of the auxin tolerance sequences, 129965 (SEQ ID NO:10), was selected for stable expression analysis using a model plant system, Arabidopsis thaliana. This required cloning of the GENEWARE® vector insert into a binary vector suitable for Agrobacterium transformation. Agrobacteriuni encoding the gene of interest as well as a selectable marker was then utilized to transform Arabidopsis plants. Transgenic plants derived from the first generation of seed (T1) were selected based on glufosinate resistance and subsequently tested for tolerance to auxin 4-amino-3,6-dichloropyridine-2-carboxylic acid.
# Plant growth and maintenance. Freshly harvested Arabidopsis thaliana (Columbia ecotype) seed was allowed to dry at least 7 days at room temperature in the presence of desiccant. Dried seed was sterilized with a 0.1% Triton X-100 (Sigma Chemical Co., St. Louis, Mo.) and 70% ethanol solution (3 min) using 95% ethanol as a wash (30 sec). After sterilization, seed was suspended in a 0.1% agarose (Sigma Chemical Co., St. Louis, Mo.) solution. The suspended seed was stored at 4° C. for 2 days to complete dormancy requirements and ensure synchronous seed germination (stratification).
# Sunshine Mix LP5 (Sun Gro Horticulture Inc., Bellevue, Wash.) was covered with fine vermiculite and subirrigated with Hoagland's solution (see Example 9) until wet. The soil mix was allowed to drain for 24 hours. […]
compound,measurement,value
"Nc1cc(Cl)nc(C(=O)O)c1Cl [4-amino-3,6-dichloropyridine-2-carboxylic acid, reference compound]",auxin symptoms in wild type plants,"systemic symptoms of epinasty and leaf cupping, as well as meristem swelling and significant chlorosis"
